Source: patent publication US8541235B2, “Modified reconstituted basement membrane composition for assay system” (Corning Incorporated, priority 2003, dated 2013)
Where two headings read alike, the source gives them in different places.

How the values were obtained:
HUVEC tube formation [1] = assay: Endothelial cell tube formation assay, stimulator studies on modified matrix; type: cell-based, human; details: modified matrix (inventive), total tube length, n=4
Experimental: (§1) With reference to FIG. 1, angiogenesis stimulators can be evaluated for their ability to enhance HUVEC tube formation using the compositions and cell culturing systems of the present invention. […] The bottom surface of the wells are shown as coated with the modified matrix composition of the present invention. On day 1, a potential angiogenesis stimulator is added to the coated surface, along with endothelial cells in cell medium. […] In inhibitor studies, the potential inhibitor is included in a well, in addition to at least one known stimulator and the endothelial cells in cell medium. After an appropriate incubation period, typically 24 hours at 37° C./5% CO2 (day 2), images of the wells are acquired, and tube length is quantified as a measure of cell tube formation.
Known stimulators were chosen to evaluate the performance of an inventive basement membrane composition vs. a prior basement membrane composition. The chosen stimulators were bFGF and spinosine-1-phosphate (S1P). […]
At the end of each assay, assay medium was removed and plates were washed once with HBSS. […] Total tube length of each well was measured using a revised (from previous) MetaMorph® Journal. Excel data was imported and analyzed using BD Gentest MPM/ADMET Software Program from BD Biosciences Discovery Labware. […]

HUVEC tube formation [2] = assay: Endothelial cell tube formation assay, inhibitor studies on modified matrix (tube formation induced by bFGF or S1P); type: cell-based, human; details: for Effect on S1P induced HUVEC tube formation: S1P 1 μM; for IC50: Homo sapiens, HUVEC
Experimental: as §1
Known stimulators were chosen to evaluate the performance of an inventive basement membrane composition vs. a prior basement membrane composition. The chosen stimulators were bFGF and spinosine-1-phosphate (S1P). Coated plates prepared as described above in Example 2 were thawed at about 4° C. for a period of about 4 to 5 hours. The components of the composition were then allowed to polymerize at 37° C., 5% CO2 for approximately 30 minutes immediately before assay setup. For stimulator studies, HUVEC (P3-P5) were harvested at about 70% cell confluence. About 50 μl of cells at 4×10^5/ml in 0.1% FBS/EBM-2 medium supplemented with or without the angiogenesis stimulators were seeded onto 96-well plates containing the pre-solidified (i.e., polymerized) modified reconstituted basement membrane composition (inventive) or a standard Matrigel® matrix (BD Growth Factor Reduced Matrigel® Matrix). The assembled assays were allowed to incubate in a 37° C. incubator with 5% CO2 for approximately 16 to 18 hours. Compounds were dissolved in DMF or water according to manufacturer's instructions.
At the end of each assay, assay medium was removed and plates were washed once with HBSS. 50 μl Calcein AM at 8 μg/ml in HBSS was added to each well and plates were incubated in a 37° C./5% CO2 incubator for 35 minutes followed by washing once in HBSS. Images were acquired with a 2× objective lens on an automated Gen-1 Cell-based Screening System (Universal Imaging Corporation™). Total tube length of each well was measured using a revised (from previous) MetaMorph® Journal. Excel data was imported and analyzed using BD Gentest MPM/ADMET Software Program from BD Biosciences Discovery Labware.
Inhibitor studies were performed as generally described in Example 4, except that for these studies, an inhibitor was included in the assay, in addition to a known stimulator. Data was obtained on the modified matrix (inventive). […] Stimulators, bFGF or S1P, were added to HUVECs at 20 ng/ml and 1 μM, respectively. Suramin of indicated concentrations was added to HUVEC in bFGF or S1P prior to adding the mixtures to each well. Each data point represents the mean+/−standard deviation (n=4).
With reference now to FIG. 5, the effects of inhibitors (SU5402 and Suramin) on HUVEC tube formation induced by stimulators (bFGF and S1P) is shown. Data was obtained on the modified matrix (inventive). Stimulators, bFGF or S1P, were added to HUVECs in EBM-2 containing 0.1% FBS at a final concentration of 20 ng/ml and 1 μM, respectively. Suramin at 15 μM (in medium) or SU5402 at 25 μM (in 0.1% DMF) were added to HUVECs in 0.1% FBS, or bFGF, or S1P, prior to adding the mixtures to the wells. […] Each bar represents the mean+/−standard deviation (n=4).

Work on `CCCCCCCCCCCCC/C=C/[C@@H](O)[C@@H](N)COP(=O)(O)O` [S1P, sphinosine-1-phosphate] yielded an EC50 (HUVEC tube formation [1]; read-out: EC50 in inducing HUVEC tube formation) of 0.319 µM.
For `Cc1c[nH]c(/C=C2\C(=O)Nc3ccccc32)c1CCC(=O)O` [SU5402], the “Effect on S1P induced HUVEC tube formation” value (HUVEC tube formation [2]; SU5402 at 25 μM (in 0.1% DMF), modified matrix, FIG. 5) was “partially inhibited” and the “Effect on HUVEC tube formation stimulated by bFGF” value (HUVEC tube formation [2]; SU5402 at 25 μM (in 0.1% DMF), bFGF 20 ng/ml, modified matrix, FIG. 5) was “completely inhibited”.
For `Cc1ccc(C(=O)Nc2ccc(S(=O)(=O)O)c3cc(S(=O)(=O)O)cc(S(=O)(=O)O)c23)cc1NC(=O)c1cccc(NC(=O)Nc2cccc(C(=O)Nc3cc(C(=O)Nc4ccc(S(=O)(=O)O)c5cc(S(=O)(=O)O)cc(S(=O)(=O)O)c45)ccc3C)c2)c1` [Suramin], the IC50 (HUVEC tube formation [2]; read-out: IC50 of inhibition of tube formation stimulated by S1P) was 10.6 µM, the IC50 (HUVEC tube formation [2]; read-out: IC50 of inhibition of tube formation stimulated by bFGF) was 7.3 µM and the “Effect on S1P induced HUVEC tube formation” value (HUVEC tube formation [2]; Suramin at 15 μM (in medium), modified matrix, FIG. 5) was “inhibited”. For the same molecule, the “Effect on bFGF induced HUVEC tube formation” value (HUVEC tube formation [2]; Suramin at 15 μM (in medium), bFGF 20 ng/ml, modified matrix, FIG. 5) was “inhibited”.
In the case of “bFGF: known angiogenesis stimulator; fibroblast growth factor (basic FGF)”, the “EC50 in inducing HUVEC tube formation” value (HUVEC tube formation [1]) is reported as 1.5 ng/mL.
